Assay results taken from PubChem BioAssay (NCI).
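96-well plates; 48 h exposure; 5 concentrations. Endpoints by linear interpolation between flanking doses. Not reached: highest tested concentration assigned. The concentration for 50% growth inhibition is given as GI50. TGI: total growth inhibition.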

What was measured:
Assay in all cases: NCI tumour cell line growth inhibition, 48 h
MCF7 breast = system: MCF7 breast
MDA-MB-435 = system: MDA-MB-435
SNB-75 CNS = system: SNB-75 CNS
EKVX NSCLC = system: EKVX NSCLC
KM12 colon = system: KM12 colon
OVCAR-8 ovarian = system: OVCAR-8 ovarian
SF-268 CNS = system: SF-268 CNS
HOP-62 NSCLC = system: HOP-62 NSCLC
RXF 393 renal = system: RXF 393 renal
A549 NSCLC = system: A549 NSCLC
K-562 leukemia = system: K-562 leukemia
CAKI-1 renal = system: CAKI-1 renal
MDA-MB-231 breast = system: MDA-MB-231 breast
SK-MEL-28 melanoma = system: SK-MEL-28 melanoma
HL-60(TB) leukemia = system: HL-60(TB) leukemia
DU-145 prostate = system: DU-145 prostate
IGROV1 ovarian = system: IGROV1 ovarian
HS 578T breast = system: HS 578T breast
OVCAR-5 ovarian = system: OVCAR-5 ovarian
NCI-H23 lung = system: NCI-H23 lung
NCI-H460 lung = system: NCI-H460 lung
OVCAR-4 ovarian = system: OVCAR-4 ovarian
HOP-92 NSCLC = system: HOP-92 NSCLC

## COc1cc2c(cc1-c1c(C)noc1C)ncc1nc(C3CCCCC3)n(C3CCC(OC(F)F)CC3)c12 (stereo unspecified)
MCF7 breast
  GI50: 0.584 µM
  TGI: > 100 µM
MDA-MB-435
  GI50: 2.14 µM
  TGI: > 100 µM
SNB-75 CNS
  GI50: 0.511 µM
  TGI: > 100 µM
EKVX NSCLC
  GI50: 2.31 µM
  TGI: > 100 µM
KM12 colon
  GI50: 3.43 µM
  TGI: > 100 µM
OVCAR-8 ovarian
  GI50: 2.74 µM
  TGI: > 100 µM
SF-268 CNS
  GI50: 5.05 µM
  TGI: > 100 µM
HOP-62 NSCLC
  GI50: 1.97 µM
  TGI: > 100 µM
RXF 393 renal
  GI50: 1.33 µM
  TGI: 3.99 µM
A549 NSCLC
  GI50: 2.89 µM
  TGI: > 100 µM
K-562 leukemia
  GI50: 1.75 µM
  TGI: > 100 µM
CAKI-1 renal
  GI50: 1.03 µM
  TGI: > 100 µM
MDA-MB-231 breast
  GI50: 1.72 µM
  TGI: > 100 µM
SK-MEL-28 melanoma
  GI50: 1.67 µM
  TGI: > 100 µM
HL-60(TB) leukemia
  GI50: 1.26 µM
  TGI: 3.97 µM
DU-145 prostate
  GI50: 3.52 µM
  TGI: > 100 µM
IGROV1 ovarian
  GI50: 3.94 µM
  TGI: > 100 µM
HS 578T breast
  GI50: 3.74 µM
  TGI: > 100 µM
OVCAR-5 ovarian
  GI50: 3 µM
  TGI: > 100 µM
NCI-H23 lung
  GI50: 2.49 µM
  TGI: > 100 µM
NCI-H460 lung
  GI50: 2.53 µM
  TGI: > 100 µM
OVCAR-4 ovarian
  GI50: 2.17 µM
  TGI: > 100 µM
HOP-92 NSCLC
  GI50: 1.53 µM
  TGI: 4.62 µM
